Results taken from paper PMC10536132, “Arginine Gemini-Based Surfactants for Antimicrobial and Antibiofilm Applications: Molecular Interactions, Skin-Related Anti-Enzymatic Activity and Cytotoxicity” (Molecules, 2023).
Marks after values point to notes of the source that are not given here.

Columns and labels:
[1] = Apparent pKa by direct titration with NaOH; format: physicochemical; settings: aqueous solution, concentration above the minimum aggregation concentration; pH at semi-equivalence point
Description: In order to determine the ionization state of these gemini surfactants at the pH used to investigate their biological properties, the apparent acid pKa was determined for each of them. The pKap value has been determined by means of a direct titration with NaOH of an aqueous solution of each compound. The surfactant concentrations used were in all cases higher than the minimum aggregation concentration, thus avoiding possible deviations in the pK value due to the monomer–aggregate balance. The pKap values can be estimated from the pH at the semi-equivalence point that is reached when the molar ratio of protonated and non-protonated species is 1:1. In these conditions, we have that the pH = pKa.
The pKa value of each compound has been determined by means of a direct titration with NaOH of an aqueous solution of each compound. The pH was measured using the pH electrode Thermo Electron Corporation ORION 8103SC and the temperature was controlled by a thermostatic bath, Heto CBN 8-30. The pKa values can be estimated from the pH at the semi-equivalence point, which contains a 1:1 molar ratio of protonated and non-protonated species; at this point, pH = pKap.

[2] = system: Pseudomonas aeruginosa PAO1 biofilm; assay: Biofilm inhibition, crystal violet; format: cell-based; settings: P. aeruginosa PAO1, 24 h contact, 2–128 μg/mL tested
Description: (§1) The ability of MRSA and P. aeruginosa to form biofilms on propylene surfaces in the presence of bis-Args was determined. The two bacterial cells were kept in contact with the gemini surfactants at different concentrations from 2 to 128 μg/mL for 24 h. Then, the percentage of biofilm inhibition was determined.
(§2) Antibiofilm activity was assessed against biofilm-producing strains of methicillin-resistant Staphylococcus aureus (MRSA) ATCC 43300 and Pseudomonas aeruginosa PAO1. Biofilm inhibition and eradication capacities of the gemini surfactants were evaluated against adherent bacterial biofilms grown in 96-well microtiter plates. Bacteria were grown overnight in tryptic soy agar at 37 °C for 24 h. The bacteria were suspended in lysogeny broth with glucose (1%) at 1.5 × 10^8 CFU/mL.
(§3) Biofilm inhibition procedure: 100 μL of the gemini surfactant at different concentration values was added to each well in a 96-well microplate, then, 100 μL of the diluted bacterial suspension was added to the wells. Two-fold serial dilutions of the gemini surfactants to be tested were used (2–128 μg/mL). Microtiter plates were incubated at 37 °C for 24 h. Spent growth media was then discarded and biofilm was fixed with 150 μL methanol for 10 min. After the plates were air dried, the biofilms were stained with 50 μL of 0.1 of % crystal violet for 25 min. The plates were rinsed with water and then 150 μL of 96% ethanol containing 10% acetic acid was added to all 96-well plates to dissolve the remaining crystal violet-stained biofilm. The absorbance value was recorded at 570 nm. Each assay was performed at least three times and the results were averaged.

[3] = system: methicillin-resistant Staphylococcus aureus (MRSA) ATCC 43300 biofilm; assay: Biofilm inhibition, crystal violet; format: cell-based; settings: 24 h contact, 2–128 μg/mL tested
Description: as §1, §2, §3

[4] = system: Pseudomonas aeruginosa PAO1 biofilm; assay: Biofilm eradication, crystal violet; format: cell-based; settings: P. aeruginosa PAO1, at 32 μg/mL
Description: (§4) The ability of these geminis to disperse and eradicate biofilms once formed on the propylene surfaces of the microtiter plates was evaluated using the same bacterial strains. […] The susceptibility of both biofilms against the tested surfactants was similar. At a low concentration of 32 μg/mL, C3(CA)2 and C3(LA)2 were able to eradicate around 60–70% of preformed biofilm; however, at this concentration, the […] hydrophobic compound, C3(OA)2, eradicated less than 30% of biofilm. At high concentrations, the eradication percentage is similar for all alkyl chains. […] In this case, at low concentrations, there is not a clear dependence between the antibiofilm properties and the spacer; however, at a high concentration, the best effectivity was obtained for the longer spacer chains.
as §2
(§5) Biofilm eradication procedure: For mature biofilm formation, 200 μL of the diluted bacterial suspension was added to each well in a 96-well microplate and incubated at 37 °C for 24 h. The wells were gently rinsed with phosphate-buffered saline (PBS) and 200 μL of the corresponding gemini surfactant solution was added to each well and incubated again at 37 °C for 24 h. Two-fold serial dilutions of the gemini surfactant were used (4–128 μg/mL). After the plates were air dried, the biofilms were stained with 50 μL of 0.1 of % crystal violet for 25 min. The plates were rinsed with water and then 150 μL of 96% ethanol containing 10% acetic acid was added to all 96-well plates to dissolve the remaining crystal violet-stained biofilm. The absorbance value was recorded at 570 nm. Each assay was conducted at least three times and the results were averaged.

[5] = system: methicillin-resistant Staphylococcus aureus (MRSA) ATCC 43300 biofilm; assay: Biofilm eradication, crystal violet; format: cell-based; settings: at 32 μg/mL
Description: as §4, §2, §5

[6] = system: squamous cell carcinoma (A431); assay: Cell viability, NRU assay; format: cell-based; settings: A431, surfactant in solution at 35.6 µg/mL, 24 h
Description: The immortal human keratinocyte (HaCaT) and the squamous cell carcinoma (A431) were obtained from Celltec, University of Barcelona. The cells were grown in DMEM medium (4.5 g/L glucose) supplemented with 10% (v/v) FBS, 2 mM L-glutamine, 100 U/mL of penicillin and 100 μg/mL of streptomycin at 37 °C under 5% CO2. Cells were routinely cultured in 75 cm^2 culture flasks and were trypsinized using trypsin-EDTA when reached approximately 80% of confluence.
HaCaT cells (1 × 10^5 cells/mL) and A431 cells (5 × 10^4 cells/mL) were grown at the defined densities into the central 60 wells of a 96-well microplate. Cells were incubated for 24 h under 5% CO2 at 37 °C. The medium was then removed and the cells were incubated with the surfactants (100 μL), previously diluted 1:1 (v/v), reaching a concentration of […] in DMEM medium supplemented with 5% FBS using two different colorimetric methods for quantification, as follows.
The accumulation of the neutral red dye in the lysosomes of viable, undamaged cells constitutes the basis of the neutral red uptake (NRU) assay. After the cells were incubated for 24 h with the corresponding systems at 35.6 µg/mL, the medium was removed and the surfactants´ solutions were incubated for 3 h with the NRU dye solution (50 μg/mL) dissolved in the medium without FBS and phenol red (Lonza). Cells were then washed with sterile PBS, followed by the addition of 100 μL of a solution containing 50% ethanol absolute and 1% acetic acid in distilled water to extract the non-adhered dye. The microplates were then stirred for 5 min at 25 °C to promote the dissolution. Finally, the absorbance of the resulting solutions was measured at λ = 550 nm using a Bio-Rad 550 microplate reader (Hercules, CA, USA).

[7] = design: method as in doi:10.1021/la981295l; settings: cited from earlier work
[8] = design: method as in doi:10.1021/la981295l; settings: cited from earlier work; remark: listed apart in the source
[9] = design: method as in doi:10.1021/la981295l; settings: cited from earlier work; remark: listed apart in the source

CCCCCCCCCCCC(=O)NC(CCCNC(=N)N)C(=O)NCCCNC(=O)C(CCCNC(=N)N)NC(=O)CCCCCCCCCCC (stereo not drawn) [C3(LA)2, Bis (N^α-lauroyl arginine 1,3-propane) diamide]
pKap [1]: 11.4 | concentration that inhibits biofilm formation [2]: 32 µg/mL | concentration that inhibits biofilm formation [3]: 32 µg/mL | preformed biofilm eradicated [4]: 60–70% | preformed biofilm eradicated [5]: 60–70% | cytotoxicity, in words [6]: did not cause any apparent cytotoxicity | CMC (mM) Conductivity [7]: 0.5 * mM | CMC (mM) Fluorescence [8]: 0.4 * mM | CMC (mM) Surface Tension [9]: 0.005 * mM | γcmc ([9]; surface tension at the cmc): 35 * mN/m
